From patent US9725418B2, “Pyrimidine compound” (Sumitomo Chemical Company, Limited, priority 2014, dated 2017)

How the values were obtained:
Type in all cases: in vivo
[1] = system: two spotted spider mites (Tetranychus urticae); test: Test Example 8: kidney bean spray, two spotted spider mite controlling value; conditions: 500 ppm, sprayed on kidney beans; female adults; 25° C.; 13 days post the treatment
Procedure: (§1) A formulation of the compound of the present invention that was prepared according to Formulation Example 5 was diluted with water so that the active ingredient concentration was set to 500 ppm to prepare a testing agent solution.
Forty (40) heads of female adult of two spotted spider mites (Tetranychus urticae) were released onto kidney beans (immediately after the development of the primary leaf). Next day, the above-mentioned test solutions were sprayed with a spray gun in the dripping amount of the chemical solution. The plants were placed in a thermostatic breeding room (25° C.), and at 13 days post the treatment, the number of the surviving insects was examined, and the controlling value was calculated by the following equation. Controlling value (%)={1−(Number of the surviving female adult insects in treated area}/(Number of the surviving female adult insects in untreated area)×100

[2] = system: housefly (Musca domestica); test: Test Example 9: filter paper with sucrose bait, housefly mortality; conditions: 0.7 mL on filter paper, female adults, after 24 hours, read-out: Mortality of insects
Procedure: (§2) A Formulation of the compound of the present invention that was prepared according to Formulation Example 5 was diluted with water so that the active ingredient concentration was set to 500 ppm to prepare a testing agent solution.
The bottom of the polyethylene cup having 5.5 cm diameter was matted with the same size of a filter paper, and 0.7 mL of the above-mentioned testing agent solution was added dropwise to the filter, and 30 mg of sucrose as bait was placed in the cup uniformly. Ten (10) heads of female adult housefly (Musca domestica) were released into the polyethylene cup and the cup was covered with the lid. After 24 hours, the life and death of housefly was examined, and the number of died insects was counted and the mortality of insects was calculated by the following equation. Mortality of insects (%)=(Number of dead insects/Number of tested insects)×100

[3] = system: common house mosquito (Culex pipiens pollens); test: Test Example 10: larvae in treated water, common house mosquito mortality; conditions: active ingredient concentration of 3.5 ppm in water, final instar larvae, after 24 hours, read-out: Mortality of insects
Procedure: as §2
The above-mentioned testing agent solution 0.7 mL was added to 100 mL of ion-exchange water (the active ingredient concentration of 3.5 ppm). Twenty (20) heads of the final instar larvae of common house mosquito (Culex pipiens pollens) was released onto the above-mentioned solution. After 24 hours, the life and death of common house mosquito was examined, and the number of died insects was counted and the mortality of insects was calculated by the following equation. Mortality of insects (%)=(Number of dead insects)/(Number of tested insects)×100

[4] = system: rice planthopper (Nilaparvata lugens); test: Test Example 5: rice seedling plant foot irrigation, rice planthopper controlling value; conditions: 500 ppm, 5 mL irrigated into plant foot of rice seedling; larvae released after 7 days; counted after 6 days
Procedure: (§3) A formulation of the compound of the present invention that was prepared according to Formulation Example 5 was diluted with water so that the active ingredient concentration was set to 500 ppm to prepare a testing agent solution. Rice seedling (on the developmental stage of the second true leaf) was planted in a polyethylene cup, and the above-mentioned test solutions 5 mL were irrigated into the plant foot, and the plants were held at 25° C. in a greenhouse for 7 days. Twenty (20) heads of three to four instar larvae of rice planthopper (Nilaparvata lugens) were released and the plants were held in a greenhouse at 25° C. After 6 days, the number of the surviving insects that were parasitic on the leaves of the rice was examined and the controlling value was calculated by the following equation. Controlling value (%)={1−(Cb×Tai)/(Cai×Tb)}×100 wherein the symbols in the formula represent the following descriptions. Cb: Number of the insects before treatment in untreated area; Cai: Number of the surviving parasitic insects at the time of the investigation in untreated area; Tb: Number of the insects before treatment in treated area; Tai: Number of the surviving parasitic insects at the time of the investigation in treated area;

[5] = system: summer fruit tortrix (Adoxophyes orana); test: Test Example 3: artificial diet, summer fruit tortrix mortality; conditions: 168 h, 1 mL on artificial diet SilkMate 2S, first instar larvae, after 7 days
Procedure: as §1
A filter paper having a diameter of 5.5 cm was spread on the bottom of a polyethylene cup having a diameter of 5.5 cm. SilkMate 2S (manufactured by NOSAN CORPORATION), an artificial diet, was sliced to 2 mm in thickness and then placed on the filter paper. Then, 1 mL of the test solution (500 ppm) was poured into the polyethylene cup. After the test solution was air-dried, the filter paper having a diameter of 5.5 cm was put on the artificial diet, and 30 first instar larvae of summer fruit tortrix (Adoxophyes orana) were released on the filter paper, and the cup was sealed with a lid. After 7 days, the number of surviving summer fruit tortrix was counted and mortality was calculated according to the following equation. Mortality (%)=(Number of dead larvae/Number of tested larvae)×100

[6] = system: cotton aphid (Aphis gossypii); test: Test Example 6: cucumber seedling spray, cotton aphid controlling value; conditions: 500 ppm, 20 mL sprayed on cucumber seedling; 6 days post the spraying
Procedure: A formulation of the compound of the present invention that was prepared according to Formulation Example 5 was diluted with water so that the active ingredient concentration was set to 500 ppm to prepare a testing agent solution. Cucumber seedling on the developmental stage of the first true leaf) was planted in a plastic cup, and about 30 heads of cotton aphid (Aphis gossypii) were released onto the leaves of the cucumber and allowed to stand for 1 day. The above-mentioned test solutions 20 mL were sprayed into the seedling. At 6 days post the spraying, the number of the surviving insects that were parasitic on the leaves of the cucumber was examined and the controlling value was calculated by the following equation. Controlling value (%)={1−(Cb×Tai)/(Cai×Tb)}×100 wherein the symbols in the formula represent the following descriptions. Cb: Number of the insects before treatment in untreated area; Cai: Number of the surviving parasitic insects at the time of the investigation in untreated area; Tb: Number of the insects before treatment in treated area; Tai: Number of the surviving parasitic insects at the time of the investigation in treated area;

[7] = system: rice planthopper (Nilaparvata lugens); test: Test Example 4: rice seedling spray, rice planthopper controlling value; conditions: 500 ppm, 10 mL sprayed on rice seedling; three to four instar larvae; 25° C.; after 6 days
Procedure: as §3, with “solutions 10” for “solutions 5”, “were sprayed. After” for “were irrigated into”, “the test solution was air-dried, twenty” for “the plant foot, and the plants were held at 25° C. in a greenhouse for 7 days. Twenty”

[8] = system: cabbage moth (Plutella xylostella); test: Test Example 1: cabbage foliar spray, cabbage moth mortality; conditions: 120 h, 20 mL sprayed onto cabbage, second instar larvae, 25° C., after 5 days
Procedure: as §1
Twenty (20) mL of the above-mentioned testing medicinal solution was sprayed onto a cabbage (Brassicae oleracea) in the third to fourth leaf stage. After the testing medicinal solution was dried, the aerial part of the plant was cut, and then was installed in a polyethylene cup (volume 100 mL) together with five heads of cabbage moth (Plutella xylostella) at the second instar larval stages. The cup was held at 25° C. and after 5 days, the number of surviving insects was counted and the mortality was calculated according to the following equation. Mortality (%)=(Number of dead larvae/Number of tested larvae)×100

[9] = system: African malaria mosquito (Anopheles gambiae); test: Test Example 11: topical application, African malaria mosquito mortality; conditions: 48 h, 167 ppm in acetone, 0.3 μL topically applied to pronotum of female adults, two days post the topical application, read-out: Mortality of insects
Procedure: Ten (10) mg of the compound of the present invention was dissolved into 3 mL of acetone. Further the agent solution was diluted with acetone to twenty times to prepare the testing agent solution (the active ingredient concentration 167 ppm). African malaria mosquito (Anopheles gambiae) adults were subjected to an anesthetic treatment with carbon dioxide gas, and then each of 0.3 μL of the above-mentioned testing agent solution was topically applied to a pronotum of a female insect. A test was carried out 10 heads per group, and after the topical application, the insects were transferred to a cup, and fed with 5% sugar solution. At two days post the topical application, the life and death of African malaria mosquito was examined, and the mortality of insects was calculated by the following equation. Mortality of insects (%)=(Number of dead insects)/(Number of tested insects)×100

[10] = system: cotton aphid (Aphis gossypii); test: Test Example 7: cucumber root soaking, cotton aphid controlling value; conditions: 500 ppm, cucumber root soaked in 5 mL; inoculated one day after treatment; 7 days post the inoculation
Procedure: as §1
Soils were washed off from the cucumber seedlings (on the developmental stage of the first true leaf). The root of the cucumber seedlings was soaked in the above-mentioned test solutions 5 mL, and at one day after the treatment, thirty heads of cotton aphid (Aphis gossypii) (all stages of life) were inoculated onto the leaves of the cucumber. At 7 days post the inoculation, the number of the surviving insets that were parasitic on the leaves of the cucumber was examined, and the controlling value was calculated by the following equation. Controlling value (%)={1−(Cb×Tai)/(Cai×Tb)}×100 wherein the symbols in the formula represent the following descriptions.
Cb: Number of the insects before treatment in untreated area;
Cai: Number of the surviving parasitic insects at the time of the investigation in untreated area;
Tb: Number of the insects before treatment in treated area;
Tai: Number of the surviving parasitic insects at the time of the investigation in treated area;

[11] = system: tobacco cutworm (Spodoptera litura); test: Test Example 2: artificial diet, tobacco cutworm mortality; conditions: 144 h, 2 mL on artificial diet Insecta LF, fourth instar larvae, after 6 days
Procedure: as §1
The bottom of the polyethylene cup having 5.5 cm diameter was matted with the same size of a filter paper. Insecta LF (manufactured by NOSAN CORPORATION), an artificial diet, was sliced to 6 mm in thickness, cut into half, and then placed on the filter paper. Then, 2 mL of the test solution was poured into the polyethylene cup. After the test solution was air-dried, 5 fourth instar larvae of tobacco cutworm (Spodoptera litura) were released into the polyethylene cup and the cup was sealed with a lid. After 6 days, the number of surviving tobacco cutworm (Spodoptera litura) was counted and the mortality was calculated according to the following equation. Mortality (%)=(Number of dead larvae/Number of tested larvae)×100

Structure (SMILES): CCc1ncnc(NCCc2ccc(C(F)(F)F)cc2)c1Cl [compound of the present invention]
- Controlling value [1]: ≥ 90%
- mortality at 500 ppm [2]: 100%
- mortality at 3.5 ppm [3]: ≥ 90%
- Controlling value [4]: ≥ 90%
- mortality at 500 ppm [5]: ≥ 90%
- Controlling value [6]: ≥ 90%
- Controlling value [7]: ≥ 90%
- mortality at 500 ppm [8]: ≥ 80%
- mortality at 167 ppm [9]: ≥ 90%
- Controlling value [10]: ≥ 90%
- mortality at 500 ppm [11]: ≥ 80%
